Experimental data published in ChEMBL document CHEMBL6078643, “Palladium-Mediated Bioorthogonal System for Prodrug Activation of N-Benzylbenzamide-Containing Tubulin Polymerization Inhibitors for the Treatment of Solid Tumors” (J Med Chem, 2024).
Active and inactive are the calls of the source. The rule behind the calls is not given here.

Columns and labels:
[1] = Antiproliferative activity against human THLE-2 cells assessed as reduction in cell viability incubated for 72 hrs by CCK-8 assay; format: toxicity, cell-based
[2] = Select factor, ratio of test compound IC50 to 5-fluoro-N-(3-hydroxy-4-methoxybenzyl)-2-morpholinobenzamide IC50 for antiproliferative activity against human THLE-2 cells assessed as reduction in cell viability incubated for 72 hrs by CCK-8 assay; format: toxicity, cell-based; details: read-out: Ratio IC50
[3] = test system: Mitochondrial membrane; test: Induction of mitochondrial membrane potential loss in human K562 cells assessed as increase in green fluorescence intensity at 80 nM incubated for 72 hrs in presence of palladium resins by JC-1 staining based flow cytometric analysis (reference value: 6.74%); format: cell membranes
[4] = test system: HepG2; test: Select factor, ratio of test compound IC50 to 5-fluoro-N-(3-hydroxy-4-methoxybenzyl)-2-morpholinobenzamide IC50 for antiproliferative activity against human HepG2 cells assessed as reduction in cell viability incubated for 72 hrs by CCK-8 assay; format: functional
[5] = test system: K562; test: Induction of apoptosis in human K562 cells assessed as necrotic cells at 80 nM incubated for 72 hrs in presence of palladium resins by Annexin V-APC staining based flow cytometric analysis (reference value: 1.65%); format: functional
[6] = test system: HUVEC; test: Antivascular activity against HUVEC cells assessed as inhibition of cell migration at 80 nM incubated for 24 hrs in presence of palladium resins by phase contrast microscopic analysis; format: functional, cell-based; details: Homo sapiens
[7] = test system: K562; test: Induction of ROS generation in human K562 cells assessed as increase in DCF-positive cells incubated for 72 hrs by DCF-DA staining based flow cytometric analysis (reference value: 7.67%); format: functional
[8] = test system: H22; test: Antiproliferative activity against mouse H22 cells assessed as reduction in cell viability incubated for 72 hrs by CCK-8 assay; format: functional, cell-based; details: H22, 72 h
[9] = test system: HUVEC; test: Antivascular activity against HUVEC cells assessed as inhibition of cell migration at 80 nM incubated for 24 hrs by phase contrast microscopic analysis; format: functional, cell-based; details: Homo sapiens
[10] = Toxicity in Balb/c mouse xenografted with human HepG2 cells assessed as effect on spleen at 20 mg/kg, iv administered daily in presence of palladium resins for 14 days by H and E staining based analysis; format: organism-based; details: in vivo, 336 h, time 14 day
[11] = test system: HepG2; test: Cytotoxicity against human HepG2 cell assessed as parent drug 5-fluoro-N-(3-hydroxy-4-methoxybenzyl)-2-morpholinobenzamide mediated decrease in cell viability at 100 nM in presence of palladium resins incubated for 72 hrs by CCK-8 assay; format: functional, cell-based
[12] = test system: HUVEC; test: Antivascular activity against HUVEC cells assessed as inhibition of capillary tube formation at 80 nM incubated for 6 hrs in presence of palladium resins by inverted microscopic analysis; format: functional, cell-based; details: Homo sapiens
[13] = target: T1, Tubulin (Homo sapiens) (UniProt P68371+Q9H4B7+P0DPH7+P68366+Q13509+Q71U36+P04350+Q3ZCM7+P07437+P68363+Q9BQE3+Q6PEY2+Q13885+Q9BVA1+Q9BUF5); test: Inhibition of tubulin polymerization in human HepG2 cells assessed as decrease in beta tubulin expression at 80 nM incubated for 24 hrs in presence of palladium resins by Western blotting analysis; format: cell-based
[14] = test system: K562; test: Induction of cell cycle arrest in human K562 cells assessed as accumulation of cells at G1 phase at 80 nM incubated for 72 hrs by PI staining based flow cytometric analysis ( Rvb = 77.46 %); format: functional
[15] = target: T1, Tubulin (Homo sapiens); test: Disruption of microtubule organization in human K562 cells assessed as appearance of slim microtubules at 80 nM incubated for 72 hrs by DAPI staining based confocal microscopic analysis; format: cell-based
[16] = test system: K562; test: Induction of cell cycle arrest in human K562 cells assessed as accumulation of cells at G2 phase at 80 nM incubated for 72 hrs by PI staining based flow cytometric analysis ( Rvb = 8.5 %); format: functional
[17] = Toxicity in Balb/c mouse xenografted with human HepG2 cells assessed as effect on lung at 20 mg/kg, iv administered daily in presence of palladium resins for 14 days by H and E staining based analysis; format: organism-based; details: in vivo, 336 h, time 14 day
[18] = target: T1, Tubulin (Homo sapiens); test: Disruption of microtubule organization in human K562 cells assessed as appearance of fibrous microtubules at 80 nM incubated for 72 hrs by DAPI staining based confocal microscopic analysis; format: cell-based
[19] = test system: K562; test: Select factor, ratio of test compound IC50 to 5-fluoro-N-(3-hydroxy-4-methoxybenzyl)-2-morpholinobenzamide IC50 for antiproliferative activity against human K562 cells assessed as reduction in cell viability incubated for 72 hrs by CCK-8 assay; format: functional
[20] = test system: K562; test: Induction of apoptosis in human K562 cells assessed as necrotic cells at 80 nM incubated for 72 hrs by Annexin V-APC staining based flow cytometric analysis (reference value: 1.65%); format: functional
[21] = test system: Mitochondrial membrane; test: Induction of mitochondrial membrane potential loss in human K562 cells assessed as green fluorescence intensity incubated for 72 hrs by JC-1 staining based flow cytometric analysis (reference value: 6.74%); format: cell membranes
[22] = test system: K562; test: Induction of cell cycle arrest in human K562 cells assessed as accumulation of cells at G2/M phase at 80 nM incubated for 72 hrs by PI staining based flow cytometric analysis ( Rvb = 8.5 %); format: functional
[23] = target: T1, Tubulin (Homo sapiens); test: In vivo inhibition of tubulin polymerization in human HepG2 cells xenografted in Balb/c mouse assessed as decrease in alpha tubulin expression at 20 mg/kg, iv administered daily for 14 days in presence of palladium resins incubated for 24 hrs by Western blot analysis; format: functional, organism-based; details: time 14.0 day
[24] = Toxicity in Balb/c mouse xenografted with human HepG2 cells assessed as change in body weight at 20 mg/kg, iv administered daily in presence of palladium resins for 14 days and measured every 2 days; format: organism-based; details: in vivo, 336 h, time 14 day
[25] = test system: K562; test: Induction of apoptosis in human K562 cells assessed as nucleus fragmentation at 80 nM incubated for 72 hrs in presence of palladium resins by Hoechst 33342 staining based fluorescent microscopic analysis; format: functional, cell-based
[26] = test system: K562; test: Induction of apoptosis in human K562 cells assessed as viable cells at 80 nM incubated for 72 hrs by Annexin V-APC staining based flow cytometric analysis (reference value: 94.21%); format: functional; details: read-out: Activity
[27] = target: T1, Tubulin (Homo sapiens); test: Disruption of microtubule organization in human K562 cells at 80 nM incubated for 72 hrs in presence of palladium resins by DAPI staining based confocal microscopic analysis; format: cell-based
[28] = test system: K562; test: Induction of cell cycle arrest in human K562 cells assessed as accumulation of cells at G1 phase at 80 nM incubated for 72 hrs in presence of palladium resins by PI staining based flow cytometric analysis ( Rvb = 77.46 %); format: functional

Activity [3]: 54.2%
inhibition [13]: Active
Activity [15]: Active
Activity [18]: Active
Activity [21]: 8.08%
Activity [23]: Active
Activity [27]: Active
SMILES: C#CCOc1cc(CNC(=O)c2cc(F)ccc2N2CCOCC2)ccc1OC
IC50 at 72 h [1]: 1420 nM
selectivity ratio at 72 h [2]: 66.2
Ratio IC50 [4]: 68.3
Activity [5]: 2.95%
Activity [6]: Active
Activity [7]: 8.22%
IC50 [8]: 805 nM
Activity [9]: inactive
Activity [10]: Non-toxic
Activity [11]: Active
Activity [12]: Active
Activity [14]: 67.39%
Activity [16]: 8.97%
Activity [17]: Non-toxic
Ratio IC50 [19]: 69.1
Activity [20]: 1.26%
Activity [22]: 8.97%
Activity [24]: Non-toxic
Activity [25]: Active
viability at 0.08 µM [26]: 92.6%
Activity [28]: 58.6%
